In PubChem BioAssay (NCI):
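Five concentrations, 48 hours, 96-well plates. GI50: concentration for 50% inhibition of growth. TGI denotes the concentration required for complete inhibition of growth.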

Columns and labels:
Experiment in all cases: NCI-60 cell line screen, 48 h
[1] = system: 786-0 renal
[2] = system: A498 renal
[3] = system: A549 NSCLC
[4] = system: ACHN renal
[5] = system: BT-549 breast
[6] = system: CAKI-1 renal
[7] = system: CCRF-CEM leukemia
[8] = system: COLO 205 colon
[9] = system: DU-145 prostate
[10] = system: EKVX NSCLC
[11] = system: HCC-2998 colon
[12] = system: HCT-116 colon
[13] = system: HCT-15 colon
[14] = system: HL-60(TB) leukemia
[15] = system: HOP-62 NSCLC
[16] = system: HOP-92 NSCLC
[17] = system: HS 578T breast
[18] = system: HT29 colon
[19] = system: IGROV1 ovarian
[20] = system: K-562 leukemia
[21] = system: KM12 colon
[22] = system: LOX IMVI melanoma
[23] = system: M14 melanoma
[24] = system: MALME-3M melanoma
[25] = system: MCF7 breast
[26] = system: MDA-MB-231 breast
[27] = system: MDA-MB-435
[28] = system: MOLT-4 leukemia
[29] = system: NCI-H226 lung
[30] = system: NCI-H23 lung
[31] = system: NCI-H460 lung
[32] = system: NCI-H522 lung
[33] = system: NCI/ADR-RES ovarian
[34] = system: OVCAR-3 ovarian
[35] = system: OVCAR-4 ovarian
[36] = system: OVCAR-5 ovarian
[37] = system: OVCAR-8 ovarian
[38] = system: PC-3 prostate
[39] = system: RPMI-8226 leukemia
[40] = system: RXF 393 renal
[41] = system: SF-268 CNS
[42] = system: SF-295 CNS
[43] = system: SF-539 CNS
[44] = system: SK-MEL-2 melanoma
[45] = system: SK-MEL-28 melanoma
[46] = system: SK-MEL-5 melanoma
[47] = system: SK-OV-3 ovarian
[48] = system: SN12C renal
[49] = system: SNB-19 CNS
[50] = system: SNB-75 CNS
[51] = system: SR leukemia
[52] = system: SW-620 colon
[53] = system: T-47D breast
[54] = system: TK-10 renal
[55] = system: U251 CNS
[56] = system: UACC-257 melanoma
[57] = system: UACC-62 melanoma
[58] = system: UO-31 renal

In the case of `O=S(=O)(CCNCc1ccc(-c2ccc3ncnc(Nc4ccc(OCc5cccc(F)c5)c(Cl)c4)c3c2)o1)c1ccccc1`, the GI50 [1] is reported as > 25 µM, the TGI [1] is reported as > 25 µM and the GI50 [2] is reported as > 14.6 µM. The TGI [2] was > 25 µM, the GI50 [3] was > 25 µM and the TGI [3] was > 25 µM. For the same compound, the GI50 [4] was 18.9 µM, the TGI [4] was > 25 µM and the GI50 [5] was > 25 µM. The TGI [5] was > 25 µM, the GI50 [6] was 6.05 µM and the TGI [6] was > 25 µM. The GI50 [7] was > 23.1 µM, the TGI [7] was > 25 µM and the GI50 [8] was > 25 µM. For the same compound, the TGI [8] was > 25 µM, the GI50 [9] was > 25 µM and the TGI [9] was > 25 µM. The GI50 [10] was 3.44 µM, the TGI [10] was > 25 µM and the GI50 [11] was > 25 µM. For the same compound, the TGI [11] was > 25 µM, the GI50 [12] was > 25 µM and the TGI [12] was > 25 µM. The GI50 [13] was > 25 µM, the TGI [13] was > 25 µM and the GI50 [14] was > 25 µM. For the same compound, the TGI [14] was > 25 µM, the GI50 [15] was > 25 µM and the TGI [15] was > 25 µM. The GI50 [16] was 14.9 µM, the TGI [16] was > 25 µM and the GI50 [17] was > 25 µM. The TGI [17] was > 25 µM, the GI50 [18] was > 25 µM and the TGI [18] was > 25 µM. The GI50 [19] was > 23.6 µM, the TGI [19] was > 25 µM and the GI50 [20] was > 25 µM. For the same compound, the TGI [20] was > 25 µM, the GI50 [21] was > 25 µM and the TGI [21] was > 25 µM. For the same compound, the GI50 [22] was > 25 µM, the TGI [22] was > 25 µM and the GI50 [23] was > 25 µM. The TGI [23] was > 25 µM, the GI50 [24] was > 25 µM and the TGI [24] was > 25 µM. The GI50 [25] was > 25 µM, the TGI [25] was > 25 µM and the GI50 [26] was > 25 µM. The TGI [26] was > 25 µM, the GI50 [27] was > 25 µM and the TGI [27] was > 25 µM. The GI50 [28] was > 25 µM, the TGI [28] was > 25 µM and the GI50 [29] was > 25 µM. For the same compound, the TGI [29] was > 25 µM, the GI50 [30] was > 25 µM and the TGI [30] was > 25 µM. For the same compound, the GI50 [31] was > 25 µM, the TGI [31] was > 25 µM and the GI50 [32] was > 19.5 µM. For the same compound, the TGI [32] was > 25 µM, the GI50 [33] was > 25 µM and the TGI [33] was > 25 µM. The GI50 [34] was > 25 µM, the TGI [34] was > 25 µM and the GI50 [35] was > 25 µM. For the same compound, the TGI [35] was > 25 µM, the GI50 [36] was > 25 µM and the TGI [36] was > 25 µM. The GI50 [37] was > 25 µM, the TGI [37] was > 25 µM and the GI50 [38] was > 25 µM. For the same compound, the TGI [38] was > 25 µM, the GI50 [39] was > 25 µM and the TGI [39] was > 25 µM. The GI50 [40] was > 25 µM, the TGI [40] was > 25 µM and the GI50 [41] was > 25 µM. For the same compound, the TGI [41] was > 25 µM, the GI50 [42] was > 25 µM and the TGI [42] was > 25 µM. For the same compound, the GI50 [43] was > 25 µM, the TGI [43] was > 25 µM and the GI50 [44] was > 25 µM. For the same compound, the TGI [44] was > 25 µM, the GI50 [45] was > 25 µM and the TGI [45] was > 25 µM. For the same compound, the GI50 [46] was > 20.5 µM, the TGI [46] was > 25 µM and the GI50 [47] was 349 nM. For the same compound, the TGI [47] was > 25 µM, the GI50 [48] was > 25 µM and the TGI [48] was > 25 µM. For the same compound, the GI50 [49] was > 25 µM, the TGI [49] was > 25 µM and the GI50 [50] was > 25 µM. The TGI [50] was > 25 µM, the GI50 [51] was > 25 µM and the TGI [51] was > 25 µM. The GI50 [52] was > 25 µM, the TGI [52] was > 25 µM and the GI50 [53] was 2210 nM. The TGI [53] was > 25 µM, the GI50 [54] was > 13.2 µM and the TGI [54] was > 25 µM. The GI50 [55] was > 25 µM, the TGI [55] was > 25 µM and the GI50 [56] was > 25 µM. For the same compound, the TGI [56] was > 25 µM, the GI50 [57] was > 25 µM and the TGI [57] was > 25 µM. For the same compound, the GI50 [58] was 9.06 µM and the TGI [58] was > 25 µM.
